According to patent publication US10947252B2, “Inhibitors of KEAP1-Nrf2 protein-protein interaction” (Janssen Pharmaceutica NV, priority 2018, dated 2021):

How the values were obtained:
[1] = target: Kelch domain of human KEAP1 (321-624 aa) (Homo sapiens (Human), UniProt Q14145); assay: KEAP1 KELCH ThermoFluor binding assay; conditions: KEAP Kelch […], 1,8-ANS, pH 7.0, average of results obtained, read-out: Tf Kd;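 also: Ligand-induced melting temperature shift of E. coli-expressed KEAP1 Kelch protein, Kd estimated from concentration-response curves of ΔTm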
[2] = test system: Glo-Response ARE-luc2P HEK293 cell line; assay: ARE luciferase reporter cell-based assay; conditions: Homo sapiens, HEK293, 24 h, average of results obtained;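 also: luciferase signal tracks Nrf2 activation of the ARE once compounds disrupt KEAP1-Nrf2 binding, read with One-Glo reagent, DMSO serving as low control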

Sequence of Kelch domain of human KEAP1 (321-624 aa) (Q14145 321-624): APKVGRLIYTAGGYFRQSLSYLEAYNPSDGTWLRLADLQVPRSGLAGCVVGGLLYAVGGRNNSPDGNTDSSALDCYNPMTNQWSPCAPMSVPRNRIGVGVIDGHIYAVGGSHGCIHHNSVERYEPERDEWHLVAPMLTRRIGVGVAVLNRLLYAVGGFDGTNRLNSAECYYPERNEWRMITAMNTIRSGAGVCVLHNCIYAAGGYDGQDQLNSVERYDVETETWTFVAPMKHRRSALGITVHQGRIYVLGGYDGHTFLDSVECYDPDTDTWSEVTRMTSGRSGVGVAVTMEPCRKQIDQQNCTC

| SMILES | Kd [1] | EC50 [2] |
| --- | --- | --- |
| CC[C@@H]1CN(Cc2cc([C@H](CC(=O)O)c3ccn4c(C(F)(F)F)nnc4c3C)ccc2C)S(=O)(=O)c2cccnc2O1 (single isomer, unassigned) [Example 189, (*S)-3-(3-(((R)-4-Ethyl-1,1-dioxido-3,4-dihydro-2H-pyrido[2,3-b][1,4,5]oxathiazepin-2-yl)methyl)-4-methylphenyl)-3-(8-methyl-3-(trifluoromethyl)-[1,2,4]triazolo[4,3-a]pyridin-7-yl)propanoic Acid] | < 1 nM | 11 nM |
| CC[C@@H]1CN(Cc2cc([C@@H](CC(=O)O)c3ccn4c(C(F)(F)F)nnc4c3C)ccc2C)S(=O)(=O)c2cccnc2O1 (single isomer, unassigned) [Example 190, (*R)-3-(3-(((R)-4-Ethyl-1,1-dioxido-3,4-dihydro-2H-pyrido[2,3-b][1,4,5]oxathiazepin-2-yl)methyl)-4-methylphenyl)-3-(8-methyl-3-(trifluoromethyl)-[1,2,4]triazolo[4,3-a]pyridin-7-yl)propanoic Acid] | < 1 nM | 57 nM |
| Cc1ccc([C@H](CC(=O)O)c2ccn3c(C(F)(F)F)nnc3c2C)cc1CN1C[C@@H]2CCCCN2c2ncc(Cl)cc2S1(=O)=O (single isomer, unassigned) [Example 192, (*S)-3-(3-(((*S)-3-Chloro-5,5-dioxido-7,7a,8,9,10,11-hexahydro-6H-dipyrido[2,1-d:2′,3′-f][1,2,5]thiadiazepin-6-yl)methyl)-4-methylphenyl)-3-(8-methyl-3-(trifluoromethyl)-[1,2,4]triazolo[4,3-a]pyridin-7-yl)propanoic Acid] | < 1 nM | 1.4 nM |
| Cc1ccc([C@H](CC(=O)O)c2ccn3c(C(F)(F)F)nnc3c2C)cc1CN1CC2(CC2)Oc2ncc(Cl)cc2S1(=O)=O (single isomer, unassigned) [Example 195, (*S)-3-(3-((8′-Chloro-1′,1′-dioxidospiro[cyclopropane-1,4′-pyrido[2,3-b][1,4,5]oxathiazepin]-2′(3′H)-yl)methyl)-4-methylphenyl)-3-(8-methyl-3-(trifluoromethyl)-[1,2,4]triazolo[4,3-a]pyridin-7-yl)propanoic Acid] | < 1 nM | 5.7 nM |
| Cc1ccc([C@H](CC(=O)O)c2ccn3c(C(F)(F)F)nnc3c2C)cc1CN1C[C@H]2COCCN2c2ncc(C#N)cc2S1(=O)=O (single isomer, unassigned) [Example 196, (*S)-3-(3-(((*S)-3-Cyano-5,5-dioxido-7a,8,10,11-tetrahydro-[1,4]oxazino[3,4-d]pyrido[2,3-f][1,2,5]thiadiazepin-6(7H)-yl)methyl)-4-methylphenyl)-3-(8-methyl-3-(trifluoromethyl)-[1,2,4]triazolo[4,3-a]pyridin-7-yl)propanoic Acid] | < 1 nM | 15 nM |
| Cc1ccc([C@H](CC(=O)O)c2ccn3c(C(F)(F)F)nnc3c2C)cc1CN1C[C@H]2COCCN2c2ncc(Cl)cc2S1(=O)=O (single isomer, unassigned) [Example 197, (*S)-3-(3-(((*S)-3-Chloro-5,5-dioxido-7a,8,10,11-tetrahydro-[1,4]oxazino[3,4-d]pyrido[2,3-f][1,2,5]thiadiazepin-6(7H)-yl)methyl)-4-methylphenyl)-3-(8-methyl-3-(trifluoromethyl)-[1,2,4]triazolo[4,3-a]pyridin-7-yl)propanoic Acid] | < 1 nM | 1.8 nM |
| Cc1ccc([C@H](CC(=O)O)c2ccn3c(C(F)(F)F)nnc3c2C)cc1CN1CC2(CC2)Oc2ncc(C#N)cc2S1(=O)=O (single isomer, unassigned) [Example 200, (*S)-3-(3-((8′-Cyano-1′,1′-dioxidospiro[cyclopropane-1,4′-pyrido[2,3-b][1,4,5]oxathiazepin]-2′(3′H)-yl)methyl)-4-methylphenyl)-3-(8-methyl-3-(trifluoromethyl)-[1,2,4]triazolo[4,3-a]pyridin-7-yl)propanoic Acid] | < 1 nM | 61 nM |
| Cc1ccc([C@H](CC(=O)O)c2ccn3c(C(F)(F)F)nnc3c2C)cc1CN1CC2(CC2)Oc2ncc(C(N)=O)cc2S1(=O)=O (single isomer, unassigned) [Example 201, (*S)-3-(3-((8′-Carbamoyl-1′,1′-dioxidospiro[cyclopropane-1,4′-pyrido[2,3-b][1,4,5]oxathiazepin]-2′(3′H)-yl)methyl)-4-methylphenyl)-3-(8-methyl-3-(trifluoromethyl)-[1,2,4]triazolo[4,3-a]pyridin-7-yl)propanoic Acid] | 300 nM | > 20000 nM |
| Cc1ccc([C@H](CC(=O)O)c2ccn3c(C(F)(F)F)nnc3c2C)cc1CN1C[C@H]2CCCCN2c2nc(C(N)=O)ccc2S1(=O)=O (single isomer, unassigned) [Example 205, (*S)-3-(3-(((*R)-2-Carbamoyl-5,5-dioxido-7,7a,8,9,10,11-hexahydro-6H-dipyrido[2,1-d:2′,3′-f][1,2,5]thiadiazepin-6-yl)methyl)-4-methylphenyl)-3-(8-methyl-3-(trifluoromethyl)-[1,2,4]triazolo[4,3-a]pyridin-7-yl)propanoic Acid] | < 1 nM | 130 nM |
| Cc1ccc([C@H](CC(=O)O)c2ccn3c(C(F)(F)F)nnc3c2C)cc1CN1C[C@H]2CCCN2c2ncc(C#N)cc2S1(=O)=O (single isomer, unassigned) [Example 207, (*S)-3-(3-(((R)-3-Cyano-5,5-dioxido-7a,8,9,10-tetrahydropyrido[2,3-f]pyrrolo[2,1-d][1,2,5]thiadiazepin-6(7H)-yl)methyl)-4-methylphenyl)-3-(8-methyl-3-(trifluoromethyl)-[1,2,4]triazolo[4,3-a]pyridin-7-yl)propanoic Acid] | < 1 nM | 11 nM |
| Cc1cnc2c(c1)S(=O)(=O)N(Cc1cc([C@H](CC(=O)O)c3ccn4c(C(F)(F)F)nnc4c3C)ccc1C)CC1(CCOCC1)O2 (single isomer, unassigned) [Example 208, (*S)-3-(4-Methyl-3-((8′-methyl-1′,1′-dioxido-2,3,5,6-tetrahydrospiro[pyran-4,4′-pyrido[2,3-b][[,4,5]oxathiazepin]-2′(3′H)-yl)methyl)phenyl)-3-(8-methyl-3-(trifluoromethyl)-[1,2,4]triazolo[4,3-a]pyridin-7-yl)propanoic Acid] | < 1 nM | 19 nM |
| Cc1ccc([C@H](CC(=O)O)c2ccc3c(nnn3C3CC3)c2C)cc1CN1C[C@H]2CCCN2c2ncccc2S1(=O)=O (single isomer, unassigned) [Example 210, (*S)-3-(1-Cyclopropyl-4-methyl-1H-benzo[d][1,2,3]triazol-5-yl)-3-(3-(((R)-5,5-dioxido-7a,8,9,10-tetrahydropyrido[2,3-f]pyrrolo[2,1-d][1,2,5]thiadiazepin-6(7H)-yl)methyl)-4-methylphenyl)propanoic Acid] | < 1 nM | 7.7 nM |
| Cc1ccc([C@@H](CC(=O)O)c2ccc3c(nnn3C3CC3)c2C)cc1CN1C[C@H]2CCCN2c2ncccc2S1(=O)=O (single isomer, unassigned) [Example 211, (*R)-3-(1-Cyclopropyl-4-methyl-1H-benzo[d][1,2,3]triazol-5-yl)-3-(3-(((R)-5,5-dioxido-7a,8,9,10-tetrahydropyrido[2,3-f]pyrrolo[2,1-d][1,2,5]thiadiazepin-6(7H)-yl)methyl)-4-methylphenyl)propanoic Acid] | 1.1 nM | 42 nM |
| Cc1ccc([C@H](CC(=O)O)c2ccc3c(nnn3C3CC3)c2C)cc1CN1C[C@H]2CCCCN2c2ncccc2S1(=O)=O (single isomer, unassigned) [Example 212, (*S)-3-(1-Cyclopropyl-4-methyl-1H-benzo[d][1,2,3]triazol-5-yl)-3-(3-(((*R)-5,5-dioxido-7,7a,8,9,10,11-hexahydro-6H-dipyrido[2,1-d:2′,3′-f][1,2,5]thiadiazepin-6-yl)methyl)-4-methylphenyl)propanoic Acid] | < 1 nM | 3.7 nM |
| Cc1ccc([C@@H](CC(=O)O)c2ccc3c(nnn3C3CC3)c2C)cc1CN1C[C@H]2CCCCN2c2ncccc2S1(=O)=O (single isomer, unassigned) [Example 213, (*R)-3-(1-Cyclopropyl-4-methyl-1H-benzo[d][1,2,3]triazol-5-yl)-3-(3-(((*R)-5,5-dioxido-7,7a,8,9,10,11-hexahydro-6H-dipyrido[2,1-d:2′,3′-f][1,2,5]thiadiazepin-6-yl)methyl)-4-methylphenyl)propanoic Acid] | < 1 nM | 8 nM |
| Cc1ccc([C@H](CC(=O)O)c2ccc3c(nnn3C3CC3)c2C)cc1CN1CC2(COC2)Oc2ccccc2S1(=O)=O (single isomer, unassigned) [Example 215, (*S)-3-(1-Cyclopropyl-4-methyl-1H-benzo[d][1,2,3]triazol-5-yl)-3-(3-((1,1-dioxidospiro[benzo[b][1,4,5]oxathiazepine-4,3′-oxetan]-2(3H)-yl)methyl)-4-methylphenyl)propanoic Acid] | < 1 nM | 3.3 nM |
| Cc1ccc([C@@H](CC(=O)O)c2ccc3c(nnn3C3CC3)c2C)cc1CN1CC2(COC2)Oc2ccccc2S1(=O)=O (single isomer, unassigned) [Example 216, (*R)-3-(1-Cyclopropyl-4-methyl-1H-benzo[d][1,2,3]triazol-5-yl)-3-(3-((1,1-dioxidospiro[benzo[b][1,4,5]oxathiazepine-4,3′-oxetan]-2(3H)-yl)methyl)-4-methylphenyl)propanoic Acid] | 2 nM | 38 nM |
| Cc1ccc([C@@H](CC(=O)O)c2ccc3c(nnn3C3CC3)c2C)cc1CN1C[C@]2(C)CCCN2c2ncccc2S1(=O)=O (single isomer, unassigned) [Example 220, (*R)-3-(1-Cyclopropyl-4-methyl-1H-benzo[d][1,2,3]triazol-5-yl)-3-(4-methyl-3-(((*S)-7a-methyl-5,5-dioxido-7a,8,9,10-tetrahydropyrido[2,3-f]pyrrolo[2,1-d][1,2,5]thiadiazepin-6(7H)-yl)methyl)phenyl)propanoic Acid] | < 1 nM | 61 nM |
